Each structure is given as a SMILES string.

The target in assay [1] is PI3Kα (p110α/p85α) (Homo sapiens (Human), UniProt P42336). Briefly: PI3Kα enzymatic test by measuring the consumption of ATP. It is filed as biochemical. The gist of the method: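 ATP consumption read out by KinaseGlo luminescence after a 90 min reaction of 1.7 μg/ml PI3Kα (p110α/p85α) with 2 μM ATP and 50 μM PIP2, buffered at pH 7.5 (Tris, 10 mM MgCl2, 1 mM EGTA, 0.03% Chaps, 1 mM DTT). Threefold dilution series over ≥10 000-fold range yield IC50.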

Assay [2] relates to Akt-pS473 in U87MG cells. Particulars: Homo sapiens, U-87 MG, read-out: U87 Akt-pS473 % Inhibition or IC50, nM (IC50), U87MG cells.
The target in assay [3] is mTOR (human recombinant aa mTOR 1360-2549) (Homo sapiens (Human), UniProt P42345). Briefly: mTOR enzymatic test by TR-FRET (phosphorylation of GFP-4EBP1). The assay is classed as biochemical. The gist of the method: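 After a 30 min room-temperature kinase reaction, EDTA (10 mM final) and Tb-labelled phospho-Thr46 antibody (2 nM final) were added and incubated 60 min. Energy transfer from Tb to phosphorylated GFP-4EBP1 was read at 340 nm excitation, emissions 490/520 nm. Values derive from the 520/490 fluorescence ratio.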

The test system of assay [4] is U87MG tumour cells. Nature of the assay: Test of in vitro proliferation of U87MG tumour cells. It is filed as cell-based. The following applies: Homo sapiens, U-87 MG, 72 h, U87MG cells, 72 hours; read-out: U87 Cell Proliferation IC50. How it is done: Model 4: Test of in vitro Proliferation of U87MG Tumour Cells.
The cell growth is determined with the reagent CellTiter 96 AQueous One Solution Cell Proliferation Assay from Promega (Cat. No. G3581).

PI3Kα (p110α/p85α), sequence (P42336 whole entry): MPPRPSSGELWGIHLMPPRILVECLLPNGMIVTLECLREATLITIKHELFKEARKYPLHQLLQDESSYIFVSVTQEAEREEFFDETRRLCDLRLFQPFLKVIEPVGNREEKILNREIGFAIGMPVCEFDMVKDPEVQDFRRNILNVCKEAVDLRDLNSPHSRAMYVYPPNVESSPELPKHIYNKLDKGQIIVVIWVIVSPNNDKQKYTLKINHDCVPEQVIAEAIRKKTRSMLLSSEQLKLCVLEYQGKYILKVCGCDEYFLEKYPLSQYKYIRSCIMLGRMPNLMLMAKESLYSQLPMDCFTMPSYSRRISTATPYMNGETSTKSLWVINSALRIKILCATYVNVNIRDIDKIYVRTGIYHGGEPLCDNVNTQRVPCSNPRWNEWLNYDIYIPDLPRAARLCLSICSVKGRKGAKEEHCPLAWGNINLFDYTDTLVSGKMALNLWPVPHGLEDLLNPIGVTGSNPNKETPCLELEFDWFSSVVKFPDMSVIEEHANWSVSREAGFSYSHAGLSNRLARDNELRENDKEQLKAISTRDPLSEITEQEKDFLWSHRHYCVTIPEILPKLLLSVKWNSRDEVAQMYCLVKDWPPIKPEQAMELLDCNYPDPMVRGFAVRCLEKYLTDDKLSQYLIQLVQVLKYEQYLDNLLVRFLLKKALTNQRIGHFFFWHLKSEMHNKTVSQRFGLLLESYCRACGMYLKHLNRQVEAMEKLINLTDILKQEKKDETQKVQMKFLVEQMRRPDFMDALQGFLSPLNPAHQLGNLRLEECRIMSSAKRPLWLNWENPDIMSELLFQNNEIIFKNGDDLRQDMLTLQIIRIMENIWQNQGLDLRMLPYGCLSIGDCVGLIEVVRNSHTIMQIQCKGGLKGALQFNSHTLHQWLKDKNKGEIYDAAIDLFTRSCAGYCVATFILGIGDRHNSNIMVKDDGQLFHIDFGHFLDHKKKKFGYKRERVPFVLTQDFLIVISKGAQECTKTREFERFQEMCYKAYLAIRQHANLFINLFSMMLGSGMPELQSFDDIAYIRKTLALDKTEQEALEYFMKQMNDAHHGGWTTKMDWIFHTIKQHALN
PI3Kα (p110α/p85α), sequence (P27986 whole entry partner): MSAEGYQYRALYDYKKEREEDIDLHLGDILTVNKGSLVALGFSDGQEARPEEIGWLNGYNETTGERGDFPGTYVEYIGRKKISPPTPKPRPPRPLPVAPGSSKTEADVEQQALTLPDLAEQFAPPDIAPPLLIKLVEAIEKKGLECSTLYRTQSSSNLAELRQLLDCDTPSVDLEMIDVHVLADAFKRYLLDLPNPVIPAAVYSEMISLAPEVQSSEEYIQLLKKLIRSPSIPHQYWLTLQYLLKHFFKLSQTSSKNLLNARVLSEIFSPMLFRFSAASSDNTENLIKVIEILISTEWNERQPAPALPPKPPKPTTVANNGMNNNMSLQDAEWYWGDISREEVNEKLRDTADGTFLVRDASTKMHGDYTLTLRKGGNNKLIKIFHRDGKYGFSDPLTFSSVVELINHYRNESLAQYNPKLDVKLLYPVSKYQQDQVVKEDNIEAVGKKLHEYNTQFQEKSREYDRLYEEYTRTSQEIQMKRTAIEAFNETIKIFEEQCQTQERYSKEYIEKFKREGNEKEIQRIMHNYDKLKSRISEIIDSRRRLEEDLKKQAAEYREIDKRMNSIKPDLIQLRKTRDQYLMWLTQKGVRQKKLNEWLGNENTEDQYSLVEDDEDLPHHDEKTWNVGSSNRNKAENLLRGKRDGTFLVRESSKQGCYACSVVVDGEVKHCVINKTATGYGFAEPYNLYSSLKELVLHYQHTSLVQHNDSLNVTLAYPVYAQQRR
mTOR (human recombinant aa mTOR 1360-2549), sequence (P42345 1360-2549): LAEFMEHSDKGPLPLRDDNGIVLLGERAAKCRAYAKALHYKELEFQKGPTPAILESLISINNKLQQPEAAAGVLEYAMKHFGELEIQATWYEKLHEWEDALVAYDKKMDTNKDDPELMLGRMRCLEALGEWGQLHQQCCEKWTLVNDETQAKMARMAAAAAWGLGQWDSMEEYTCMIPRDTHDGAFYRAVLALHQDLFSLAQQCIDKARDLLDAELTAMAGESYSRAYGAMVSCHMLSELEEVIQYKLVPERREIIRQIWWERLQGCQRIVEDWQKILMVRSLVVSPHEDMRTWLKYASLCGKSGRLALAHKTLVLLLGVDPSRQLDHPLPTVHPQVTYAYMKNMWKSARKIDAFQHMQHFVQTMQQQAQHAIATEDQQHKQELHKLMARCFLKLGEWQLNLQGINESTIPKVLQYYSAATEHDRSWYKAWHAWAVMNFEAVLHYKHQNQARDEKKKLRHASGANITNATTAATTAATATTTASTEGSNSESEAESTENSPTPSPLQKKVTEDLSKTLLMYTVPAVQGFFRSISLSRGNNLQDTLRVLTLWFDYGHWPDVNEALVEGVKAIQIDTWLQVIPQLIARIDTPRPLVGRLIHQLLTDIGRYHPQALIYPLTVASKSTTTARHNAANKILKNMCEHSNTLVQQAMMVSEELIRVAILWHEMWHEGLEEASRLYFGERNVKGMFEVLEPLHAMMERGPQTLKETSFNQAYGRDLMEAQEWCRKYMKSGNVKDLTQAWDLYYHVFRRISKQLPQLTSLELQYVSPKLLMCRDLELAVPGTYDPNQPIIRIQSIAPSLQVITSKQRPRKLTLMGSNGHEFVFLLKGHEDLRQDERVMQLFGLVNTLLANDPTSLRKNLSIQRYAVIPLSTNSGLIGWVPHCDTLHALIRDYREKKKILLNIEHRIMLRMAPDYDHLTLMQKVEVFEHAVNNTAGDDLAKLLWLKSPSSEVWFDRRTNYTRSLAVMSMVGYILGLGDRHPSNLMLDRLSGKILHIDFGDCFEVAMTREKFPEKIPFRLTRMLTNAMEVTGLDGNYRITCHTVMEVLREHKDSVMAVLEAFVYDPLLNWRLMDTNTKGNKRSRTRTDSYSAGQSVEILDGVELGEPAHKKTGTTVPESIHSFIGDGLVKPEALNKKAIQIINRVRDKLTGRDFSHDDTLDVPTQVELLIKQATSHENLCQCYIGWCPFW

With `CCNC(=O)Nc1ccc(-c2nc(N3CCOC[C@@H]3C)nc3c2C(=O)N(CC)CC(C)(C)O3)cc1F` [Example 3, 1-Ethyl-3-{4-[6-ethyl-8,8-dimethyl-2-((S)-3-methylmorpholin-4-yl)-5-oxo-5,6,7,8-tetrahydro-9-oxa-1,3,6-triazabenzocyclohepten-4-yl]-2-fluorophenyl}urea], the “PI3Ka IC50” value in assay [1] is 2110 nM. For the same compound, the IC50 in assay [2] was 48 nM; in assay [3] it was 18 nM; in assay [4], 242 nM.
Regarding `CCN1CC(C)(C)Oc2nc(N3CC4CCC(C3)O4)nc(-c3ccc(NC(=O)NC4CC4)c(F)c3)c2C1=O` [Example 133, 1-Cyclopropyl-3-{4-[6-ethyl-8,8-dimethyl-2-(8-oxa-3-azabicyclo[3.2.1]oct-3-yl)-5-oxo-5,6,7,8-tetrahydro-9-oxa-1,3,6-triazabenzocyclohepten-4-yl]-2-fluorophenyl}urea], the “PI3Ka IC50” value in assay [1] is recorded as more than 10000 nM. Also, the IC50 amounted to 92 nM in assay [2], 33 nM in assay [3] and 219 nM in assay [4].
Take `C[C@H]1COCCN1c1nc2c(c(-c3ccc(NC(=O)Nc4ccon4)c(F)c3)n1)C(=O)N(C1CCOCC1)CC(C)(C)O2` [Example 156, 1-{4-[8,8-Dimethyl-2-((S)-3-methylmorpholin-4-yl)-5-oxo-6-(tetrahydropyran-4-yl)-5,6,7,8-tetrahydro-9-oxa-1,3,6-triazabenzocyclohepten-4-yl]-2-fluorophenyl}-3-isoxazol-3-ylurea]: the “PI3Ka IC50” value in assay [1] turned out to be 1140 nM. Also, the IC50 was found to be 92 nM in assay [2], 27 nM in assay [3] and 395 nM in assay [4].
On the same counts, the results for `CCN1CC(C)(C)Oc2nc(N3CCOC[C@@H]3C)nc(-c3ccc(NC(=O)OCCO)c(F)c3)c2C1=O` [Example 209, {4-[6-Ethyl-8,8-dimethyl-2-((S)-3-methylmorpholin-4-yl)-5-oxo-5,6,7,8-tetrahydro-9-oxa-1,3,6-triazabenzocyclohepten-4-yl]-2-fluorophenyl}carbamic acid 2-hydroxyethyl ester] are more than 10000 nM, 69 nM, 155 nM and 1050 nM.
Turning to `CCN1CC(C)(C)Oc2nc(N3CCOCC3)nc(-c3ccc(NC(=O)OC)cc3)c2C1=O` [Example 103, [4-(6-Ethyl-8,8-dimethyl-2-morpholin-4-yl-5-oxo-5,6,7,8-tetrahydro-9-oxa-1,3,6-triazabenzocyclohepten-4-yl)phenyl]carbamic acid methyl ester], in assay [1], the “PI3Ka IC50” value was 6590 nM. For the same compound, the figures for the IC50 in assay [2], in assay [3] and in assay [4] were 425 nM, 194 nM and 3510 nM, respectively.
On the same counts, the results for `Cc1ccc(NC(=O)Nc2ccc(-c3nc(N4CC5CCC(C4)O5)nc4c3C(=O)N(C)CC(C)(C)O4)cc2)nc1` [Example 42, 1-(5-Methylpyridin-2-yl)-3-{4-[6,8,8-trimethyl-2-(8-oxa-3-azabicyclo[3.2.1]oct-3-yl)-5-oxo-5,6,7,8-tetrahydro-9-oxa-1,3,6-triazabenzocyclohepten-4-yl]phenyl}urea] are more than 10000 nM, 52 nM, 43 nM and 350 nM.
As for `CCN1CC(C)(C)Oc2nc(N3CCOC[C@@H]3C)nc(-c3ccc(NC(=O)Nc4ccc(N5CC6CCC(C5)O6)nc4)c(F)c3)c2C1=O` [Example 258, 1-{4-[6-Ethyl-8,8-dimethyl-2-((S)-3-methylmorpholin-4-yl)-5-oxo-5,6,7,8-tetrahydro-9-oxa-1,3,6-triazabenzocyclohepten-4-yl]-2-fluorophenyl}-3-[6-(8-oxa-3-azabicyclo[3.2.1]oct-3-yl)pyridin-3-yl]urea], the “PI3Ka IC50” value in assay [1] turned out to be 2940 nM. Moreover, the values for the IC50 in assay [2], in assay [3] and in assay [4] were 20 nM, 53 nM and 125 nM, respectively.
For `CCN1CC(C)(C)Oc2nc(N3C4CCC3COC4)nc(-c3ccc(NC(=O)Nc4ccncc4)c(F)c3)c2C1=O` [Example 51, 1-{4-[6-Ethyl-8,8-dimethyl-2-(3-oxa-8-azabicyclo[3.2.1]oct-8-yl)-5-oxo-5,6,7,8-tetrahydro-9-oxa-1,3,6-triazabenzocyclohepten-4-yl]-2-fluorophenyl}-3-pyridin-4-ylurea] the same measures were 1900 nM, 14 nM, 20 nM and 12 nM.
On to `CCN1CC(C)(C)Oc2nc(N3CC4CCC(C3)O4)nc(-c3ccc(NC(=O)Nc4cnc(N5CCOCC5)cn4)c(F)c3)c2C1=O` [Example 233, 1-{4-[6-Ethyl-8,8-dimethyl-2-(8-oxa-3-azabicyclo[3.2.1]oct-3-yl)-5-oxo-5,6,7,8-tetrahydro-9-oxa-1,3,6-triazabenzocyclohepten-4-yl]-2-fluorophenyl}-3-(5-morpholin-4-ylpyrazin-2-yl)urea], for which, in assay [1], the “PI3Ka IC50” value is reported as more than 10000 nM. Besides, the IC50 in assay [2] stood at 87 nM; in assay [3], 68 nM; in assay [4], 908 nM.
For `CCN1CC(C)(C)Oc2nc(N3CC4CCC(C3)O4)nc(-c3ccc(NC(=O)Nc4ccc(N5CCN(S(C)(=O)=O)CC5)cc4)c(F)c3)c2C1=O` [Example 235, 1-{4-[6-Ethyl-8,8-dimethyl-2-(8-oxa-3-azabicyclo[3.2.1]oct-3-yl)-5-oxo-5,6,7,8-tetrahydro-9-oxa-1,3,6-triazabenzocyclohepten-4-yl]-2-fluorophenyl}-3-[4-(4-methanesulfonylpiperazin-1-yl)phenyl]urea], in assay [1], the “PI3Ka IC50” value was more than 7200 nM. The IC50 in assay [2] is 10 nM; in assay [3] it was 89 nM; in assay [4], 29 nM.
For the compound `CCN1CC(C)(C)Oc2nc(N3CC4CCC(C3)O4)nc(-c3ccc(NC(=O)Nc4ccc(N(C)C)cn4)cc3)c2C1=O` [Example 64, 1-(5-Dimethylaminopyridin-2-yl)-3-{4-[6-ethyl-8,8-dimethyl-2-(8-oxa-3-azabicyclo[3.2.1]oct-3-yl)-5-oxo-5,6,7,8-tetrahydro-9-oxa-1,3,6-triazabenzocyclohepten-4-yl]phenyl}urea], the “PI3Ka IC50” value in assay [1] is on record as more than 10000 nM. In addition, the IC50 is 37 nM in assay [2], 24 nM in assay [3] and 270 nM in assay [4].
Turning to `CCN1CC(C)(C)Oc2nc(N3CC4CCC(C3)O4)nc(-c3ccc(NC(=O)NCC4CCN(C)CC4)c(F)c3)c2C1=O` [Example 130, 1-{4-[6-Ethyl-8,8-dimethyl-2-(8-oxa-3-azabicyclo[3.2.1]oct-3-yl)-5-oxo-5,6,7,8-tetrahydro-9-oxa-1,3,6-triazabenzocyclohepten-4-yl]-2-fluorophenyl}-3-(1-methylpiperidin-4-ylmethyl)urea], in assay [1], the “PI3Ka IC50” value is on record as more than 10000 nM. Moreover, the IC50 was more than 3000 nM in assay [2], 2120 nM in assay [3] and more than 10000 nM in assay [4].
Turning to `CCN1CC(C)(C)Oc2nc(N3C4CCC3COC4)nc(-c3ccc(NC(=O)NC)c(F)c3)c2C1=O` [Example 207, 1-{4-[6-Ethyl-8,8-dimethyl-2-(3-oxa-8-azabicyclo[3.2.1]oct-8-yl)-5-oxo-5,6,7,8-tetrahydro-9-oxa-1,3,6-triazabenzocyclohepten-4-yl]-2-fluorophenyl}-3-methylurea], the “PI3Ka IC50” value in assay [1] was more than 10000 nM. Besides, the IC50 in assay [2] came to 19 nM; in assay [3], 18 nM; in assay [4] it was 74 nM.
